Assay results taken from the NIST ThermoML archive (doi:10.1021/je060271a).
Where “and” joins values, the source holds several entries; their conditions need not be identical. Equal values may be shown once.

Settings: Liquid, Vibrating tube method

CCCCCCCC(=O)OCC(COC(=O)CCCCCCC)(COC(=O)CCCCCCC)COC(=O)CCCCCCC [pentaerythritol tetraoctanoate]
Settings	mass density
303.14 K, 4098.2 kPa	957.9 kg/m3
303.14 K, 4118.3 kPa	957.9 kg/m3
303.14 K, 4135.4 kPa	957.9 kg/m3
303.14 K, 4156 kPa	957.9 kg/m3
303.14 K, 4172.8 kPa	957.9 kg/m3
303.14 K, 4194.3 kPa	958 kg/m3
303.14 K, 4211.9 kPa	958 kg/m3
303.14 K, 4232.9 kPa	958.1 kg/m3
303.14 K, 4250 kPa	958 kg/m3
303.14 K, 4271.5 kPa	958.1 kg/m3
303.14 K, 4289.7 kPa	958 kg/m3
303.14 K, 4414.6 kPa	958.1 kg/m3
303.14 K, 4495.8 kPa	958.1 kg/m3
303.14 K, 4506.9 kPa	958.2 kg/m3
303.14 K, 4516.1 kPa	958.2 kg/m3
303.14 K, 4528.5 kPa	958.3 kg/m3
303.14 K, 4565.1 kPa	958.2 kg/m3
303.14 K, 4883.3 kPa	958.4 kg/m3
303.14 K, 4909.3 kPa	958.4 kg/m3
303.14 K, 4931.2 kPa	958.5 kg/m3
303.14 K, 4958.7 kPa	958.5 kg/m3
303.14 K, 5309.4 kPa	958.7 kg/m3
303.14 K, 5618.4 kPa	958.8 kg/m3
303.14 K, 5650.1 kPa	958.8 kg/m3
303.14 K, 5689.5 kPa	958.9 kg/m3
303.14 K, 5713.9 kPa	959 kg/m3
303.14 K, 5742.8 kPa	959 kg/m3
303.14 K, 6420.5 kPa	959.2 kg/m3
303.14 K, 6514.5 kPa	959.4 kg/m3
303.14 K, 6535.9 kPa	959.5 kg/m3
303.14 K, 6561.5 kPa	959.4 kg/m3
303.14 K, 6885.2 kPa	959.7 kg/m3
303.14 K, 6937.5 kPa	959.7 kg/m3
303.14 K, 6965.9 kPa	959.7 kg/m3
303.14 K, 6989.7 kPa	959.7 kg/m3
303.14 K, 7018.5 kPa	959.7 kg/m3
303.14 K, 7042.7 kPa	959.8 kg/m3
303.14 K, 7072.4 kPa	959.8 kg/m3
303.14 K, 7331.7 kPa	960 kg/m3
303.14 K, 7358.2 kPa	959.8 kg/m3
303.14 K, 7974.8 kPa	960.4 kg/m3
303.14 K, 8046.4 kPa	960.3 kg/m3
303.14 K, 8085.7 kPa	960.5 kg/m3
303.14 K, 8120 kPa	960.5 kg/m3
303.14 K, 8830.9 kPa	960.7 kg/m3
303.14 K, 9313 kPa	961.2 kg/m3
303.14 K, 9339.7 kPa	961.2 kg/m3
303.14 K, 11022 kPa	962.1 kg/m3
303.14 K, 11048 kPa	962.2 kg/m3
303.14 K, 13652 kPa	963.7 kg/m3
303.14 K, 13735 kPa	963.7 kg/m3
303.14 K, 13777 kPa	963.7 kg/m3
303.14 K, 13855 kPa	963.8 kg/m3
303.14 K, 13898 kPa	963.8 kg/m3
303.14 K, 14022 kPa	964 kg/m3
303.15 K, 104.6 kPa	955.3 kg/m3 and 955.4 kg/m3
303.15 K, 104.7 kPa	955.5 kg/m3 and 955.4 kg/m3
303.15 K, 104.9 kPa	955.4 kg/m3
303.15 K, 105.1 kPa	955.4 kg/m3
303.15 K, 106.7 kPa	955.3 kg/m3
303.15 K, 113.4 kPa	955.5 kg/m3
303.15 K, 119.7 kPa	955.5 kg/m3
303.15 K, 123.3 kPa	955.5 kg/m3
303.15 K, 127.9 kPa	955.5 kg/m3
303.15 K, 133.8 kPa	955.5 kg/m3
303.15 K, 141.4 kPa	955.5 kg/m3
303.15 K, 151 kPa	955.4 kg/m3
303.15 K, 163.8 kPa	955.4 kg/m3
303.15 K, 180.7 kPa	955.5 kg/m3
303.15 K, 203.5 kPa	955.6 kg/m3
303.15 K, 234.4 kPa	955.6 kg/m3
303.15 K, 272.8 kPa	955.5 kg/m3
303.15 K, 306.2 kPa	955.6 kg/m3
303.15 K, 333.5 kPa	955.7 kg/m3
303.15 K, 351.9 kPa	955.6 kg/m3
303.15 K, 363.2 kPa	955.6 kg/m3
303.15 K, 377.9 kPa	955.7 kg/m3
303.15 K, 393.4 kPa	955.6 kg/m3
303.15 K, 410.1 kPa	955.7 kg/m3
303.15 K, 427 kPa	955.6 kg/m3
303.15 K, 438.6 kPa	955.6 kg/m3
303.15 K, 450.2 kPa	955.6 kg/m3
303.15 K, 462.7 kPa	955.6 kg/m3
303.15 K, 474.7 kPa	955.6 kg/m3
303.15 K, 487.9 kPa	955.7 kg/m3
303.15 K, 499.6 kPa	955.6 kg/m3
303.15 K, 514.7 kPa	955.8 kg/m3
303.15 K, 529.5 kPa	955.5 kg/m3
303.15 K, 545.8 kPa	955.7 kg/m3
303.15 K, 562.8 kPa	955.6 kg/m3
303.15 K, 580.7 kPa	955.7 kg/m3
303.15 K, 600.2 kPa	955.7 kg/m3
303.15 K, 620 kPa	955.7 kg/m3
303.15 K, 635.4 kPa	955.8 kg/m3
303.15 K, 653.7 kPa	955.7 kg/m3
303.15 K, 673.1 kPa	955.8 kg/m3
303.15 K, 690.2 kPa	955.8 kg/m3
303.15 K, 711.7 kPa	955.8 kg/m3
303.15 K, 734 kPa	955.8 kg/m3
303.15 K, 753.9 kPa	955.8 kg/m3
303.15 K, 778.9 kPa	955.8 kg/m3
303.15 K, 805.3 kPa	955.7 kg/m3
303.15 K, 828.4 kPa	956 kg/m3
303.15 K, 856.4 kPa	956 kg/m3
303.15 K, 878.8 kPa	956 kg/m3
303.15 K, 896.7 kPa	955.9 kg/m3
303.15 K, 918.8 kPa	955.9 kg/m3
303.15 K, 937.7 kPa	955.8 kg/m3
303.15 K, 961.3 kPa	955.9 kg/m3
303.15 K, 986.7 kPa	956 kg/m3
303.15 K, 1012 kPa	956 kg/m3
303.15 K, 1034.8 kPa	956.1 kg/m3
303.15 K, 1062.9 kPa	956 kg/m3
303.15 K, 1087.6 kPa	956.1 kg/m3
303.15 K, 1118 kPa	956.1 kg/m3
303.15 K, 1149.9 kPa	956 kg/m3
303.15 K, 1183.3 kPa	956 kg/m3
303.15 K, 1212.4 kPa	956.1 kg/m3
303.15 K, 1248.7 kPa	956.1 kg/m3
303.15 K, 1287.1 kPa	956.2 kg/m3
303.15 K, 1320.4 kPa	956.1 kg/m3
303.15 K, 1362.3 kPa	956.1 kg/m3
303.15 K, 1407.7 kPa	956.3 kg/m3
303.15 K, 1447.7 kPa	956.2 kg/m3
303.15 K, 1500.9 kPa	956.2 kg/m3
303.15 K, 1544.9 kPa	956.4 kg/m3
303.15 K, 1600.2 kPa	956.4 kg/m3
303.15 K, 1657.7 kPa	956.3 kg/m3
303.15 K, 1716.5 kPa	956.4 kg/m3
303.15 K, 1763.5 kPa	956.4 kg/m3
303.15 K, 1789.9 kPa	956.6 kg/m3
303.15 K, 1809.7 kPa	956.6 kg/m3
303.15 K, 1826.2 kPa	956.5 kg/m3
303.15 K, 1847 kPa	956.6 kg/m3
303.15 K, 1864.2 kPa	956.5 kg/m3
303.15 K, 1884.7 kPa	956.4 kg/m3
303.15 K, 1906.9 kPa	956.5 kg/m3
303.15 K, 1925.8 kPa	956.5 kg/m3
303.15 K, 1948 kPa	956.5 kg/m3
303.15 K, 1967.5 kPa	956.7 kg/m3
303.15 K, 1990.5 kPa	956.6 kg/m3
303.15 K, 2013.8 kPa	956.6 kg/m3
303.15 K, 2034.1 kPa	956.6 kg/m3
303.15 K, 2058.5 kPa	956.7 kg/m3
303.15 K, 2083.2 kPa	956.6 kg/m3
303.15 K, 2104.7 kPa	956.6 kg/m3
303.15 K, 2130.4 kPa	956.7 kg/m3
